# In article PMC6150226, “Inhibition of Human Kallikrein 5 Protease by Triterpenoids from Natural Sources” (Molecules : A Journal of Synthetic Chemistry and Natural …, 2017):
# Read-outs that look alike come from different tables or passages of the source.
# Legend:
# recombinant human KLK5 = biological target: T1, recombinant human KLK5 (Homo sapiens, UniProt Q9Y337); assay: KLK5 enzymatic assay (Boc-V-P-R-AMC fluorogenic substrate); type: biochemical
# T1 construct: purchased R & D Systems Inc
# T1 sequence (Q9Y337 23-293): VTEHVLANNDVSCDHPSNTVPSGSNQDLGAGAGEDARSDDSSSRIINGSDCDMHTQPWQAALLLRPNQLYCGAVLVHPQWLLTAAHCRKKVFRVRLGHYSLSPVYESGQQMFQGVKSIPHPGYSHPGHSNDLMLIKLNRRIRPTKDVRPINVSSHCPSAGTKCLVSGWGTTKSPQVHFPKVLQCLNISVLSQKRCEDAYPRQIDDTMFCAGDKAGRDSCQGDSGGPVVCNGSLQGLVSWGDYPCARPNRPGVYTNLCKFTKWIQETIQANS
# [1] = Plasma pharmacokinetics of triterpenoids in rats after oral Jumihaidokuto (LC-MS/MS); type: in vivo; settings: rat; for Cmax: male, Sprague-Dawley, plasma
# Protocol: Male Sprague–Dawley rats were purchased from Charles River Laboratories (Yokohama, Japan). The plasma pharmacokinetic study was performed according to the “Guidelines for the Care and Use of Laboratory Animals” of Tsumura & Co. Ethical approval for experimental procedures was obtained from the Laboratory Animal Committee of Tsumura & Co. Jumihaidokuto (JHT, Lot No. 332031900) was supplied by Tsumura & Co. (Tokyo, Japan) in the form of a powdered extract. JHT prepared in distilled water was orally administered to 16-h fasted rats at 2 g/10 mL/kg (n = 3). […] Plasma was obtained by centrifugation at 1700 g for 15 min at 4 °C and stored at −80 °C until further processing. […] Twenty-five microliters of methanol, an equal volume of atropine (2 ng/mL; Wako Pure Chemical Industries) as internal standard, and 750 µL of methanol were added to 200 µL of plasma samples, followed by mixing and centrifugation (7000× g, 5 min). For the preparation of the calibration curve, the same volumes of various concentrations of working solution were used instead of methanol. The supernatant was dried at 40 °C under a stream of nitrogen gas. The dried residue was dissolved in 50–60 μL of the initial mobile phase used for liquid chromatography–mass spectrometry with a tandem mass spectrometry system (LC-MS/MS; API4000 or Triple Quad 6500; AB Sciex, Tokyo, Japan) and then a 10- or 20-μL portion was injected into the LC-MS/MS system for the quantification of triterpenoids.
# [2] = system: recombinant human trypsin; assay: Trypsin enzymatic assay (Boc-V-P-R-AMC); type: biochemical; settings: for IC50: 0.78-100 μM, linear interpolation
# Protocol: (§1) KLK5, KLK7, trypsin, and chymotrypsin C activities were evaluated according to the following methods supplied by R & D Systems Inc. (Minneapolis, MN, USA). The enzyme activity-dependent increase in the relative fluorescent unit (RFU) was measured, and the percentage of inhibition was calculated based on the formula: (1 − (A − B)/(C − B)) × 100, where A = RFU of test samples with enzymes, B = basal RFU without enzymes, and C = RFU of vehicle controls with enzymes.
# To measure the trypsin activity, enzymatic reaction was performed at room temperature in 100 mM NaH2PO4 buffer (pH 8.0) containing 0.25 μg/mL recombinant human trypsin (Wako Pure Chemical Industries), 100 μM of Boc-V-P-R-AMC Fluorogenic Peptide Substrate, and 1.1% DMSO at final concentrations. […] was preincubated with test samples for 5 min, followed by the addition of peptide substrate. After incubating for 1 min, RFU was measured at Ex 380 nm/Em 460 nm. Leupeptin hemisulfate (42.1 μM) was used as a positive control.
# NHEKs = assay: Cell growth test (XTT-based cell viability assay); set-up: species or system human; settings: ursolic acid 0.5 and 5 μM, tumulosic acid 1 and 10 μM; 24 h; with or without 10 μM cycloheximide
# [3] = system: LL-37 production in normal human epidermal keratinocytes (NHEKs); type: cell-based
# [4] = biological target: T2, recombinant human pro-KLK7 activated by thermolysin (Kallikrein 7) (Homo sapiens, UniProt P49862); assay: KLK7 enzymatic assay (fluorogenic peptide substrate II); type: biochemical
# T2 construct: purchased R & D Systems Inc
# T2 sequence (P49862 30-253): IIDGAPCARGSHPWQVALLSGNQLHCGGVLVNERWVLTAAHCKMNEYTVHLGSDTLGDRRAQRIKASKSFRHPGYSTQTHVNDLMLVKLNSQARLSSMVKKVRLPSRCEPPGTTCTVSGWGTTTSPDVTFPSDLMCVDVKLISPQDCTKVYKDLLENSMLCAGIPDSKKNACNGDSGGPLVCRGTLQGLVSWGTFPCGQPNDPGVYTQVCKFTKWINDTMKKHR
# [5] = biological target: T3, recombinant human pro-chymotrypsin C activated by trypsin (Chymotrypsin C) (Homo sapiens, UniProt Q99895); assay: Chymotrypsin C enzymatic assay (Suc-A-A-P-F-AMC); type: biochemical; settings: for IC50: 0.78-100 μM, linear interpolation
# T3 construct: purchased R & D Systems Inc
# T3 sequence (Q99895 30-268, other chains not shown): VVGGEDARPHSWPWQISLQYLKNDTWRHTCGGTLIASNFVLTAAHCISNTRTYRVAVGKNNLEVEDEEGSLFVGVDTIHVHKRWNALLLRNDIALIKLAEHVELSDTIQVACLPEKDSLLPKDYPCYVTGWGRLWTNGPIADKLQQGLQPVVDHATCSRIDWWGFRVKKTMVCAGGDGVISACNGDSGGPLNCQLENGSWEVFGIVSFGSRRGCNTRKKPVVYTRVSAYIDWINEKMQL
# Protocol: as §1, with “enzymes. […] Activated chymotrypsin C (final 34.7 nM) was preincubated with test samples for 5 min, followed by the addition of peptide substrate. After incubating for 60 min, RFU was measured at Ex 380 nm/Em 460 nm.” for “enzymes.”
# [6] = 10 μM test compound, KLK5 8.1 nM, substrate 100 μM, mean ± SEM of triplicate
# [7] = 10 μM test compound, KLK5 8.1 nM, substrate 100 μM, mean ± SEM of triplicate, read-out: Anti-KLK5 Activity % Inhibition
# [8] = dose-response experiment of Figure 2, read-out: IC50 anti-KLK5 activity
# [9] = 2 g/kg, single oral Jumihaidokuto 2 g/10 mL/kg
# [10] = single oral Jumihaidokuto 2 g/10 mL/kg
smiles,measurement,setting,value
CC1(C(=O)O)CCC2(C)CCC3(C)C(=CC(=O)C4C5(C)CCC(O)C(C)(C)C5CCC43C)C2C1 (stereo not drawn) [18β-Glycyrrhetinic acid],inhibition at 30 µM,"recombinant human KLK5; 30 μM, KLK5 8.1 nM, substrate 100 μM, mean ± SEM of triplicate, read-out: Anti-KLK5 Activity % Inhibition",16 ± 1.2%
C=C(C)[C@@H]1CC[C@]2(C(=O)O)CC[C@]3(C)[C@H](CC[C@@H]4[C@@]5(C)CC[C@H](O)C(C)(C)[C@@H]5CC[C@]43C)[C@@H]12 [Betulinic acid],Anti-KLK5 Activity % Inhibition,recombinant human KLK5; [6],did not influence the KLK5 activity
same,inhibition at 10 µM,recombinant human KLK5; [7],5.5 ± 2.5%
C=C(CC[C@@H](C(=O)O)C1[C@H](O)C[C@@]2(C)C3=CCC4C(C)(CCC(OC(C)=O)C4(C)C)C3=CCC12C)C(C)C (stereo partly drawn) [Dehydropachymic acid],inhibition at 10 µM,recombinant human KLK5; [7],33.9 ± 3.7%
C=C(CC[C@@H](C(=O)O)[C@H]1[C@H](O)C[C@@]2(C)C3=CC[C@H]4C(C)(C)[C@@H](O)CC[C@]4(C)C3=CC[C@]12C)C(C)C [Dehydrotumulosic acid],inhibition at 10 µM,recombinant human KLK5; [7],-46.2 ± 2.7%
"C[C@@H]1C[C@H]2[C@@H]3CCC4=CC(=O)C=C[C@]4(C)[C@@]3(F)[C@@H](O)C[C@]2(C)[C@@]1(O)C(=O)CO [Dexamethasone, reference compound]",Anti-KLK5 Activity % Inhibition,recombinant human KLK5; [6],did not influence the KLK5 activity
same,inhibition at 10 µM,recombinant human KLK5; [7],-1.8 ± 2.8%
C=C(CC[C@@H](C(=O)O)[C@H]1CC[C@@]2(C)C3=C(CC[C@]12C)[C@@]1(C)CC[C@H](O)C(C)(C)[C@@H]1CC3)C(C)C [Eburicoic acid],inhibition at 10 µM,recombinant human KLK5; [7],-51 ± 3%
"CC(=O)N[C@@H](CC(C)C)C(=O)N[C@@H](CC(C)C)C(=O)N[C@H](C=O)CCCN=C(N)N.CC(=O)N[C@@H](CC(C)C)C(=O)N[C@@H](CC(C)C)C(=O)N[C@H](C=O)CCCN=C(N)N.O=S(=O)(O)O [Leupeptin hemisulfate, reference compound]",Anti-KLK5 Activity % Inhibition,"recombinant human KLK5; 42.1 μM (positive control), KLK5 8.1 nM, mean ± SEM of triplicate",96.9 ± 0.1%
same,Anti-KLK5 Activity % Inhibition,"recombinant human KLK5; 42.1 μM (positive control), KLK5 8.1 nM, mean ± SEM of triplicate, listed as leupeptin hemisulfate",completely inhibited
CC1(C)CC[C@]2(C(=O)O)CC[C@]3(C)C(=CC[C@@H]4[C@@]5(C)CC[C@H](O)C(C)(C)[C@@H]5CC[C@]43C)[C@@H]2C1 [Oleanolic acid],IC50,recombinant human KLK5; [8],6.4 µM
C=C(CC[C@@H](C(=O)O)[C@H]1[C@H](O)C[C@@]2(C)C3=C(CC[C@]12C)[C@@]1(C)CC[C@H](OC(C)=O)C(C)(C)[C@@H]1CC3)C(C)C [Pachymic acid],Cmax,[1]; [9],2.1 ng/mL
same,time of Cmax,[1]; [10],6 h
same,inhibition at 10 µM,recombinant human KLK5; [7],56.2 ± 1.5%
same,IC50,recombinant human KLK5; [8],5.9 µM
CC1(C)CCC2(C(=O)O)C(C1)C1=CCC3C4(C)CC(O)C(O)C(CO)(CO)C4CCC3(C)[C@]1(C)C[C@H]2O (stereo partly drawn) [Platycodigenin],inhibition at 10 µM,recombinant human KLK5; [7],8.8 ± 2%
C[C@@H]1O[C@@H](O[C@H]2[C@H](OC(=O)[C@]34CCC(C)(C)C[C@H]3C3=CC[C@@H]5[C@@]6(C)C[C@H](O)[C@H](O[C@@H]7O[C@H](CO)[C@@H](O)[C@H](O)[C@H]7O)C(CO)(CO)[C@@H]6CC[C@@]5(C)[C@]3(C)C[C@H]4O)OC[C@H](O)[C@@H]2O)[C@H](O)[C@H](O)[C@H]1O[C@@H]1OC[C@@H](O)[C@H](O[C@@H]2OC[C@](O)(CO)[C@H]2O)[C@H]1O [Platycodin D],inhibition at 10 µM,recombinant human KLK5; [7],-6 ± 2.9%
CC1(C)CCC2(C(=O)O)C(O)CC3(C)C(=CCC4C5(C)CC(O)C(O)C(C)(CO)C5CCC43C)C2C1 (stereo not drawn) [Polygalacic acid],Anti-KLK5 Activity % Inhibition,recombinant human KLK5; [6],did not influence the KLK5 activity
same,inhibition at 10 µM,recombinant human KLK5; [7],5.5 ± 2.3%
CC1(C)CCC2(CO)C(=C3C=CC4C5(C)CCC(O)C(C)(CO)C5CCC4(C)C3(C)CC2O)C1 (stereo not drawn) [Saikogenin A],Anti-KLK5 Activity % Inhibition,recombinant human KLK5; [6],24.3 ± 2.6%
CC1(C)CCC2(CO)C(=C3C=CC4C5(C)CCC(O)C(C)(CO)C5CCC4(C)C3(C)CC2O)C1 (stereo not drawn) [Saikogenin D],Anti-KLK5 Activity % Inhibition,recombinant human KLK5; [6],−1.5 ± 3.6%
C[C@H]1O[C@@H](O[C@H]2CC[C@@]3(C)[C@@H](CC[C@]4(C)[C@@H]3C=C[C@]35OC[C@@]6(CCC(C)(C)C[C@H]63)[C@@H](O)C[C@]54C)[C@]2(C)CO)[C@H](O)[C@@H](O[C@@H]2O[C@H](CO)[C@@H](O)[C@H](O)[C@H]2O)[C@H]1O [Saikosaponin a],inhibition at 10 µM,recombinant human KLK5; [7],4.3 ± 0.7%
C[C@H]1O[C@@H](O[C@H]2CC[C@@]3(C)[C@@H](CC[C@]4(C)[C@@H]3C=CC3=C5CC(C)(C)CC[C@]5(CO)[C@@H](O)C[C@]34C)[C@]2(C)CO)[C@H](O)[C@@H](O[C@@H]2O[C@H](CO)[C@@H](O)[C@H](O)[C@H]2O)[C@H]1O [Saikosaponin b1],inhibition at 10 µM,recombinant human KLK5; [7],39.6 ± 1.6%
same,IC50,recombinant human KLK5; [8],14.4 µM
CC1OC(OC2CCC3(C)C(CCC4(C)C3C=CC3=C5CC(C)(C)CCC5(CO)C(O)CC34C)C2(C)CO)C(O)C(OC2OC(CO)C(O)C(O)C2O)C1O (stereo not drawn) [Saikosaponin b2],Anti-KLK5 Activity % Inhibition,recombinant human KLK5; [6],21.1 ± 1.4%
CC1OC(OC2C(COC3OC(CO)C(O)C(O)C3O)OC(OC3CCC4(C)C(CCC5(C)C4C=CC46OCC7(CCC(C)(C)CC74)[C@@H](O)C[C@@]56C)C3(C)C)C(O)C2O)C(O)C(O)C1O (stereo partly drawn) [Saikosaponin c],inhibition at 10 µM,recombinant human KLK5; [7],4.1 ± 1.6%
CC1OC(OC2CCC3(C)C(CCC4(C)C3C=CC35OCC6(CCC(C)(C)CC63)C(O)CC45C)C2(C)CO)C(O)C(OC2OC(CO)C(O)C(O)C2O)C1O (stereo not drawn) [Saikosaponin d],inhibition at 10 µM,recombinant human KLK5; [7],-10.4 ± 3.5%
C=C(CC[C@@H](C(=O)O)[C@H]1[C@H](O)C[C@@]2(C)C3=C(CC[C@]12C)[C@@]1(C)CC[C@H](O)C(C)(C)[C@@H]1CC3)C(C)C [Tumulosic acid],"Inhibition % at 100 μM, Trypsin",[2],73.2 ± 1.6%
same,IC50,[2]; listed as Tumulosic Acid,45.3 µM
same,IC50,[2]; listed as tumulosic acid,10.5 µM
same,Cmax,[1]; [9],116 ng/mL
same,Cmax,"[1]; single oral Jumihaidokuto 2 g/kg, converted from 116.1 ng/mL",238 nM
same,time of Cmax,[1]; [10],2 h
same,cytotoxic effect on cell proliferation,NHEKs,No cytotoxic effect
same,inhibition at 10 µM,recombinant human KLK5; [7],36 ± 1.9%
same,inhibition at 100 µM,"recombinant human KLK5; 100 μM, read-out: Inhibition % at 100 μM, Kallikrein 5",58.7 ± 0.2%
same,IC50,recombinant human KLK5; [8],19.3 µM
same,IC50,"recombinant human KLK5; selectivity experiment of Table 2, 0.78-100 μM, linear interpolation, read-out: IC50 Kallikrein 5",14.8 µM
same,amount of LL-37 in NHEK lysates,[3],decreased
same,inhibition at 100 µM,[4],19.5 ± 1.5%
same,IC50,"[4]; 0.78-100 μM, linear interpolation",> 100 µM
same,"Inhibition % at 100 μM, Chymotrypsin C",[5]; 100 μM,4.1 ± 5.2%
same,inhibition at 100 µM,[5]; 100 μM,4%
same,IC50,[5],> 100 µM
C[C@H]1[C@H](C)CC[C@]2(C(=O)O)CC[C@]3(C)C(=CC[C@@H]4[C@@]5(C)CC[C@H](O)C(C)(C)[C@@H]5CC[C@]43C)[C@H]12 [Ursolic acid],"Inhibition % at 100 μM, Trypsin",[2],76.9 ± 3.5%
same,IC50,[2]; listed as Ursolic Acid,14.8 µM
same,IC50,[2]; listed as ursolic acid,10.5 µM
same,inhibition at 10 µM,recombinant human KLK5; read-out: Anti-KLK5 Activity % Inhibition,54.6 ± 1.3%
same,amount of LL-37 in NHEK lysates,"[3]; ursolic acid 0.5 and 5 μM, tumulosic acid 1 and 10 μM, 23 h, in the presence of 10 μM cycloheximide",decreased
same,inhibition at 100 µM,[5]; 100 μM,35.3 ± 2.9%
same,IC50,[5],> 100 µM
